This assay has as its system PTLD-like EBV+ B cell lines. The experiment in a line: in vitro cell growth inhibition (3H-thymidine incorporation). It counts as cell-based, human. To be noted: for degree of inhibition of growth: 0-10 nanomolar. The source says: Most cell lines used in this study were lymphoblastoid B-cell lines obtained by in vitro infection with EBV of peripheral blood mononuclear cells (PBMC). Cell lines A1 and A2D6 were obtained from normal, healthy individuals. Cell lines 15A and 20A were obtained from two different patients with a low grade B-cell lymphoma with monoclonal cold agglutinins (Silberstein et al., 1991, Blood 78:2372-2386). Both lines secreted cold agglutinins with the same specificity as the cold agglutinins found in the patient's serum (Silberstein et al., 1991, Blood 78:2372-2386). […] LCL B-cell line was obtained from a patient with a progressive cutaneous T-cell lymphoproliferative disorder (Zhang et al., 1996, Proc. Natl. Acad. Sci. USA 93:9148-9153). BC-1 is derived from a peritoneal effusion B-cell lymphoma (PEL) and, in addition to EBV, harbors […] virus (Cesarman et al., 1995, Blood 86:2708-2714). The other 3 cell lines used as controls in the in vitro growth inhibition assay were HTLV-I (+) T-cell lines ATL-2 (Maeda et al., 1985, Exp. Med. 162:2169-2174); C10MJ2 (Popovic et al., 1983, Science 219: 856-859); and HUT102B (Poiescz, 1980, Proc. Natl. Acad. Sci. USA 77:7415-7419; Bunn, et al, 1996, J. Cell. Biochem. Suppl 24:12-23) derived from patients with adult T-cell leukemia/lymphoma (ATLL). They were shown by us to be non-responsive to SDZ RAD and the related, immunosuppressive macrolide, rapamycin (Zhang et al., 1999, Leukemia Res. 23:373-384). All cell lines were maintained in humidified incubators at 37° C. in an atmosphere containing 5% CO2 in standard medium: RPMI Medium 1640 (Gibco BRL, Grand Island, N.Y.) supplemented with 10% (v/v) heat inactivated fetal bovine serum (BioWhittaker, Walkersville, Md.), 1% penicillin/streptomycin/fungizone mixture (Gibco BRL), and 2 millimolar L-glutamine (Gibco BRL).
An assay to assess inhibition of in vitro cell growth by SDZ RAD was performed as described (Zhang et al., 1999, Leukemia Res. 23:373-384; Zhang et al., 1996, Proc. Natl. Acad. Sci. USA 93:9148-9153). Briefly, cell lines were cultured for 32 hours in triplicate at 2×10^4 cells per well in the presence of various concentrations of SDZ RAD (Novartis Pharma, Basel). After pulsing the cells with 0.5 microcurie ^3H-thymidine (New England Nuclear, Boston, Mass.) and culturing the cells for the next 18 hours, isotope incorporation into the cells was measured. The results of proliferation assays were expressed as the mean radioactivity of triplicate cultures. Standard deviation within the triplicates was <15%.
In order to determine whether SDZ RAD can inhibit proliferation of cells mimicking PTLDs, 6 different EBV^+ B cell lines were cultured in vitro in the presence of the drug at various concentrations. […]
Background: Uptake of a labelled nucleoside into DNA is a usual measure of proliferation.

With `CO[C@H]1C[C@@H]2CC[C@@H](C)[C@@](O)(O2)C(=O)C(=O)N2CCCC[C@H]2C(=O)O[C@H]([C@H](C)C[C@@H]2CC[C@@H](OCCO)[C@H](OC)C2)CC(=O)[C@H](C)/C=C(\C)[C@@H](O)[C@@H](OC)C(=O)[C@H](C)C[C@H](C)/C=C/C=C/C=C/1C` [SDZ RAD, 40-O-(2-hydroxy)ethyl-rapamycin], the inhibition of growth (1 nanomolar, all EBV+ B cell lines, 32 hours culture then 18 hours 3H-thymidine pulse) is 60-95%. Besides, the “sensitivity of cell lines to the drug” value (all PTLD-like EBV+ B cell lines) is given as “very sensitive”. Also, the “degree of inhibition of growth” value is on record as 90-100% (cell lines obtained from normal B cells); 80-90% (lines derived from patients with B-cell lymphomas (15A, 20A and BC-1)).
